Where two headings read alike, the source gives them in different places.
Experiments:
Pim3 kinase = Pim3 kinase (Homo sapiens, UniProt Q86V86); assay: Pim3 ATP depletion assay; assay type: biochemical
PC3 cells = assay: Cell proliferation assay (CellTiter-Glo), PC3; assay type: cell-based; settings: Homo sapiens, PC-3
Description: HEL 92.1.7 cells (ATTC No. TIB-180, an erythroleukemia line derived from malignant peripheral blood), MV4-11 cells (ATCC No. CRL-9591, a human acute monocytic leukemia line) and PC3 cells (ATCC No. CRL-1435, a human prostatic adenocarcinoma line) were cultured in RPMI1640 supplemented with 10% FBS, sodium pyruvate and antibiotics. Cells were plated in the same medium at a density of 1000 cells per well into 96 well tissue culture plates, with outside wells vacant, on the day of assay.
Test compounds supplied in DMSO were diluted into DMSO at 500 times the desired final concentrations before dilution into culture media to 2 times final concentrations. Equal volumes of 2× compounds were added to the cells in 96 well plates and incubated at 37° C. for 3 days.
After 3 days plates were equilibrated to room temperature and equal volume of CellTiter-Glow Reagent (Promega) was added to the culture wells. The plates were agitated briefly and luminescent signal was measured with luminometer. The percent inhibition of the signal seen in cells treated with DMSO alone vs. cells treated with control compound was calculated and used to determine EC50 values (i.e., the concentration of a test compound that is required to obtain 50% of the maximum effect in the cells) for tested compounds, as shown in Example 763.

Pim2 kinase = Pim2 kinase (Homo sapiens, UniProt Q9P1W9); assay: Pim2 ATP depletion assay; assay type: biochemical;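 note: Luciferase-based luminescent readout of ATP remaining after PIM2 phosphorylates a BAD peptide, final 5 nM enzyme, 4 µM ATP, 10 µM peptide, 2.5% DMSO, run to roughly half ATP consumption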
Chain of Pim2 kinase (Q9P1W9 whole entry): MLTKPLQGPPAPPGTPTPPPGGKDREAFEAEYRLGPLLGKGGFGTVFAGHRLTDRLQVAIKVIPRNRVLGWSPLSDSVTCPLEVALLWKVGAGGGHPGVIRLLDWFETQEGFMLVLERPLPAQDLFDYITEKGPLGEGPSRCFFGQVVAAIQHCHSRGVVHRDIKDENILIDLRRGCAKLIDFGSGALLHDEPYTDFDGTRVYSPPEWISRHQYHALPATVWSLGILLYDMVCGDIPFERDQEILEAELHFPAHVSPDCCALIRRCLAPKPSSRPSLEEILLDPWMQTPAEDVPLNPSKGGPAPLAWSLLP

Pim1 kinase = Pim1 kinase (Homo sapiens, UniProt P11309); assay: Pim1 ATP depletion assay; assay type: biochemical; settings: Pim1 ATP depletion assay;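 note: Luciferase-luciferin luminescence readout of residual ATP after PIM1 transfers phosphate to a peptide substrate, 40 µM ATP added, reaction run to roughly half ATP consumption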
Chain of Pim1 kinase (P11309 whole entry): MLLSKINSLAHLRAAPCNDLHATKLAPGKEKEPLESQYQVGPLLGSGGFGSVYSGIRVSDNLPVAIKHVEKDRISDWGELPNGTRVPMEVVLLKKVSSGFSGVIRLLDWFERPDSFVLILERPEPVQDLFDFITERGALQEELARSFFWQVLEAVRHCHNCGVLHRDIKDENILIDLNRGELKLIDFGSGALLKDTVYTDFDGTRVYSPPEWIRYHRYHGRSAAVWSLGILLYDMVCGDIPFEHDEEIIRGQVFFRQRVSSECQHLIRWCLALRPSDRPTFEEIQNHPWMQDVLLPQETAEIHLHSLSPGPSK

[1] = molecular target: T1, human full length PKCE enzyme (Homo sapiens, UniProt Q02156); assay: In vitro PKCE assay; assay type: biochemical; settings: 10 nM enzyme, 40 uM peptide substrate, 20 uM ATP, KinaseGlo Plus readout; read-out: PKCε IC50
T1 construct: human full length PKCE enzyme purchased from InVitrogen; purchased InVitrogen
T1 sequence (Q02156 1-737): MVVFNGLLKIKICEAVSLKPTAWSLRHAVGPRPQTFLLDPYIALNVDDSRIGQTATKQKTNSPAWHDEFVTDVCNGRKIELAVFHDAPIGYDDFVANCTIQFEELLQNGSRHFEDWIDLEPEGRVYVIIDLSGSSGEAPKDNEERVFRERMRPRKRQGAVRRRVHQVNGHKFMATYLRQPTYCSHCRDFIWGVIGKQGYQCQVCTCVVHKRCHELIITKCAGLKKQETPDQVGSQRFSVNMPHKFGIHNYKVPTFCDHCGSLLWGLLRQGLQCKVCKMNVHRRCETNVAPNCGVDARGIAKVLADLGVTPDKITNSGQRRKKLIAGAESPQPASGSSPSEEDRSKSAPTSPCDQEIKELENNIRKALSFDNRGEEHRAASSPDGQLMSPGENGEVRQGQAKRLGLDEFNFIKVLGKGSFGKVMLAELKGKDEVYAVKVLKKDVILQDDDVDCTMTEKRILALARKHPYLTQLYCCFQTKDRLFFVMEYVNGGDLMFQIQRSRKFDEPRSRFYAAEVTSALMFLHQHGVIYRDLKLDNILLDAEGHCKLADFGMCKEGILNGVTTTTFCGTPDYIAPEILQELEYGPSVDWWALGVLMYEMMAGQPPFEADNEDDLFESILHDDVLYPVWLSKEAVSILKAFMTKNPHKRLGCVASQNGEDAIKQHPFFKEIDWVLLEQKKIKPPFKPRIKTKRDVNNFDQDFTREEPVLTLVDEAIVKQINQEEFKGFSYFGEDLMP

KDR kinase = KDR kinase (Homo sapiens, UniProt P35968); assay: KDR AlphaScreen assay; settings: KDR IC50 (μM)
Chain of KDR kinase (P35968 20-1356): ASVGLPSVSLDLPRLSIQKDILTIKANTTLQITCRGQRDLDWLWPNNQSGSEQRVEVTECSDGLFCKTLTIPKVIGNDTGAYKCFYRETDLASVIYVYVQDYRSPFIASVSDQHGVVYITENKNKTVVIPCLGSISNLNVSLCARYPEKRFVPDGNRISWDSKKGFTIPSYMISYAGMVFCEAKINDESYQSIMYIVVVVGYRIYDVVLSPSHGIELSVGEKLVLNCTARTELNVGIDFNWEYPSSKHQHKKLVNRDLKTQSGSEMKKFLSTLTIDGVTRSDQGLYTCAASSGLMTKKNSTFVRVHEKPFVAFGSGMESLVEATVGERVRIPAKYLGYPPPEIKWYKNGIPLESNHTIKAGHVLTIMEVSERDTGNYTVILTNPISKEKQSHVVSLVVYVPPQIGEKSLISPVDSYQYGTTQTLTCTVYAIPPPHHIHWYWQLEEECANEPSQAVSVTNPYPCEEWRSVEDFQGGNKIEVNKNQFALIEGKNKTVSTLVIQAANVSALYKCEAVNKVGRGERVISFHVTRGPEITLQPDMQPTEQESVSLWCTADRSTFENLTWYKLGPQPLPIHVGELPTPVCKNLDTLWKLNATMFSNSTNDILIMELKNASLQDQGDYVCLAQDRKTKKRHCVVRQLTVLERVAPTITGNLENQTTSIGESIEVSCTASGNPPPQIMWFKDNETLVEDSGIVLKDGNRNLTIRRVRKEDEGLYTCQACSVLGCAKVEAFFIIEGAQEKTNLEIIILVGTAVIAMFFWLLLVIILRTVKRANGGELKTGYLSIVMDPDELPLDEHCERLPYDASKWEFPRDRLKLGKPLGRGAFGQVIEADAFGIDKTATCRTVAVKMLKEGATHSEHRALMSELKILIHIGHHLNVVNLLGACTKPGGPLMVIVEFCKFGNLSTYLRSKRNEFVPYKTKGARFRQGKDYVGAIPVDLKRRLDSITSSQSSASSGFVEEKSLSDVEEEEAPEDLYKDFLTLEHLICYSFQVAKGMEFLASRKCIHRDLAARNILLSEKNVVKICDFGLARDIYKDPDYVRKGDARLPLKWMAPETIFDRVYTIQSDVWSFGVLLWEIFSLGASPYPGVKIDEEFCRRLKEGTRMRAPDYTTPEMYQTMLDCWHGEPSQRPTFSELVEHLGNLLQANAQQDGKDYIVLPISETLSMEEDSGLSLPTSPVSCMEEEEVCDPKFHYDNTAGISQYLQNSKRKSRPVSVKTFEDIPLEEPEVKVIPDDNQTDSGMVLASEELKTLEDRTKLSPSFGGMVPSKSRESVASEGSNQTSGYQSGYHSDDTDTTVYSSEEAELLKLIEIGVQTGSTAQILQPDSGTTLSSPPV

HEL 92.1.7 cells = assay: Cell proliferation assay (CellTiter-Glo), HEL 92.1.7; assay type: cell-based; settings: Homo sapiens
Method in brief: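 Cells in RPMI1640 with 10% FBS were seeded at 1000 cells/well and exposed to compound dilutions from DMSO stocks for 3 days at 37 °C. Viability was read by CellTiter-Glo luminescence. EC50 was derived from percent inhibition relative to DMSO-only and control-compound wells.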

Row | SMILES | IC50 (Pim3 kinase; read-out: IC50 (μM) PIM3) [µM] | EC50 (PC3 cells) [µM] | IC50 (Pim2 kinase; read-out: IC50 (μM) PIM2) [µM] | IC50 (Pim1 kinase; read-out: IC50 (μM) PIM1) [µM] | IC50 [1] [µM] | IC50 (KDR kinase) [µM] | IC50 (Pim3 kinase; read-out: PIM3 IC50) [µM] | IC50 (Pim2 kinase; read-out: PIM2 IC50) [µM] | IC50 (Pim1 kinase; read-out: PIM1 IC50) [µM] | EC50 (HEL 92.1.7 cells; read-out: EC50 (μM) HEL 92.1.7) [µM] | EC50 (HEL 92.1.7 cells; read-out: HEL 92.1.7 EC50) [µM]
1 | Nc1nc(N)c(C(=O)Nc2ccncc2N2CCCCC2)nc1Cl [Example 120, 3,5-diamino-6-chloro-N-(3-piperidin-1-ylpyridin-4-yl)-pyrazine-2-carboxamide] | < 1 | 1 to 5 | 1 to 10 | < 1 | 1 to 10 |  |  |  |  |  | 
2 | Nc1nccnc1C(=O)Nc1ccncc1N1CCCCC1 [Example 122, 3-amino-N-(3-piperidin-1-yl-pyridin-4-yl)pyrazine-2-carbox-amide] | 1 to 10 | < 1 | 1 to 10 | < 1 | < 1 |  |  |  |  |  | 
3 | Nc1nccnc1C(=O)Nc1cnccc1N1CCC(N)CC1 [Example 193, 3-amino-N-[4-(4-aminopiperidin-1-yl)pyridin-3-yl]pyrazine-2-carboxamide] | < 1 | < 1 | 1 to 10 | < 1 | < 1 |  |  |  |  |  | 
4 | Nc1nccnc1C(=O)Nc1cc(-c2ccn[nH]2)ccc1N1CCC(N)CC1 [Example 207, 3-amino-N-[2-(4-aminopiperidin-1-yl)-5-(1H-pyrazol-5-yl)phenyl]pyrazine-2-carbox-amide] | < 1 | 5 to 10 | 10 to 25 | < 1 |  |  |  |  |  |  | 
5 | Nc1nccnc1C(=O)Nc1cc(F)ccc1N1CCC(N)CC1 [Example 208, 3-amino-N-[2-(4-aminopiperidin-1-yl)-5-fluorophenyl]pyrazine-2-carboxamide] | < 1 | < 1 | 1 to 10 | < 1 |  |  |  |  |  |  | 
6 | Nc1nccnc1C(=O)Nc1c(F)cccc1N1CCC(N)CC1 [Example 209, 3-amino-N-[2-(4-aminopiperidin-1-yl)-6-fluorophenyl]pyrazine-2-carboxamide] | > 25 | 1 to 5 | > 25 | 10 to 25 |  |  |  |  |  |  | 
7 | Nc1nccnc1C(=O)Nc1ccc(F)cc1N1CCC(N)CC1 [Example 210, 3-amino-N-[2-(4-aminopiperidin-1-yl)-4-fluorophenyl]pyrazine-2-carboxamide] | < 1 | < 1 | 1 to 10 | < 1 |  |  |  |  |  |  | 
8 | Nc1nc(N)c(-c2ccccc2C(F)(F)F)nc1C(=O)Nc1cnccc1N1CCCC(N)C1 (stereo not shown) [Example 341, 3,5-diamino-6-(2-trifluoro-methyl-phenyl)-pyrazine-2-carboxylic acid (3-amino-3,4,5,6-tetrahydro-2H-[1,4′]bi-pyridinyl-3′-yl)-amide] | < 1 |  | < 1 | < 1 | < 1 | 1 to 10 |  |  |  | 1 to 5 | 
9 | Nc1nc(N)c(-c2ccccc2Cl)nc1C(=O)Nc1cnccc1N1CCCC(N)C1 (stereo not shown) [Example 342, 3,5-diamino-6-(2-chloro-phenyl)-pyrazine-2-carboxylic acid (3-amino-3,4,5,6-tetra-hydro-2H-[1,4′]bipyridinyl-3′-yl)-amide] | < 1 |  | < 1 | < 1 | 1 to 10 | 1 to 10 |  |  |  | < 1 | 

Continued, in another order:

Row | IC50 (Pim3 kinase; read-out: IC50 (μM) PIM3) [µM] | EC50 (PC3 cells) [µM] | IC50 (Pim2 kinase; read-out: IC50 (μM) PIM2) [µM] | IC50 (Pim1 kinase; read-out: IC50 (μM) PIM1) [µM] | IC50 [1] [µM] | IC50 (KDR kinase) [µM] | IC50 (Pim3 kinase; read-out: PIM3 IC50) [µM] | IC50 (Pim2 kinase; read-out: PIM2 IC50) [µM] | IC50 (Pim1 kinase; read-out: PIM1 IC50) [µM] | SMILES | EC50 (HEL 92.1.7 cells; read-out: EC50 (μM) HEL 92.1.7) [µM] | EC50 (HEL 92.1.7 cells; read-out: HEL 92.1.7 EC50) [µM]
10 | < 1 |  | < 1 | < 1 | 1 to 10 | 1 to 10 |  |  |  | Nc1nc(N)c(-c2ccccc2F)nc1C(=O)Nc1cnccc1N1CCCC(N)C1 (stereo not shown) [Example 343, 3,5-diamino-6-(2-fluoro-phenyl)-pyrazine-2-carboxylic acid (3-amino-3,4,5,6-tetra-hydro-2H-[1,4′]bipyridinyl-3′-yl)-amide] | < 1 | 
11 | < 1 |  | < 1 | < 1 | 10 to 25 | > 25 |  |  |  | COc1ccccc1-c1nc(C(=O)Nc2cnccc2N2CCCC(N)C2)c(N)nc1N (stereo not shown) [Example 344, 3,5-diamino-6-(2-methoxy-phenyl)-pyrazine-2-carboxylic acid (3-amino-3,4,5,6-tetra-hydro-2H-[1,4′]bipyridinyl-3′-yl)-amide] | > 10 | 
12 | < 1 | 1 to 5 | < 1 | < 1 |  |  |  |  |  | COc1ccc(F)c(-c2cnc(N)c(C(=O)Nc3ccccc3N3CCC(N)CC3)n2)c1 [Example 393, 3-amino-6-(2-fluoro-5-methoxy-phenyl)-pyrazine-2-carboxylic acid [2-(4-amino-piperidin-1-yl)-phenyl]-amide] |  | 
13 | 1 to 10 | 1 to 5 | > 25 | < 1 |  |  |  |  |  | COc1cc(-c2cnc(N)c(C(=O)Nc3ccccc3N3CCNCC3)n2)cc(OC)c1OC [Example 395, 3-amino-6-(3,4,5-trimethoxy-phenyl)-pyrazine-2-carboxylic acid (2-piperazin-1-yl-phenyl)-amide] |  | 
14 | < 1 | 1 to 5 | 1 to 10 | < 1 |  |  |  |  |  | COc1ccc(F)c(-c2cnc(N)c(C(=O)Nc3ccccc3N3CCNCC3)n2)c1 [Example 396, 3-amino-6-(2-fluoro-5-methoxy-phenyl)-pyrazine-2-carboxylic acid (2-piperazin-1-yl-phenyl)-amide] |  | 
15 | < 1 | < 1 |  | < 1 |  |  |  |  |  | Nc1ncc(-c2ccccc2)nc1C(=O)Nc1ccccc1N1CCC(N)CC1 [Example 397, 3-amino-6-phenyl-pyrazine-2-carboxylic acid [2-(4-amino-piperidin-1-yl)-phenyl]-amide] |  | 
16 | < 1 |  | < 1 | < 1 | 1 to 10 | > 25 |  |  |  | Nc1cc(Cl)c(-c2ccc(N)c(C(=O)Nc3cnccc3N3CCC[C@H](N)C3)n2)cn1 [Example 410, 5,6′-diamino-4′-chloro-[2,3′]bi-pyridinyl-6-carboxylic acid ((S)-3-amino-3,4,5,6-tetrahydro-2H-[1,4′]bipyridinyl-3′-yl)-amide] | 1 to 5 | 
17 | < 1 |  | < 1 | < 1 | 10 to 25 | > 25 |  |  |  | Nc1ccc(-c2ccc(N)c(C(=O)Nc3cnccc3N3CCC[C@H](N)C3)n2)cn1 [Example 418, 5,6′-diamino-[2,3′]bipyridinyl-6-carboxylic acid ((S)-3-amino-3,4,5,6-tetrahydro-2H-[1,4′]bi-pyridinyl-3′-yl)-amide] | 1 to 5 | 
18 | < 1 |  | < 1 | < 1 | 1 to 10 | > 25 |  |  |  | Nc1ccc(-c2ccc(F)cc2F)nc1C(=O)Nc1cnccc1N1CCC[C@H](N)C1 [Example 431, 3-amino-6-(2,4-difluoro-phenyl)-pyridine-2-carboxylic acid ((S)-3-amino-3,4,5,6-tetrahydro-2H-[1,4′]bipyridinyl-3′-yl)-amide] | 1 to 5 | 
19 |  |  |  |  | 1 to 10 | < 1 | < 1 | < 1 | < 1 | Nc1ncc(-c2ccccc2)nc1C(=O)Nc1[nH]c(=O)ncc1N1CCCCC1 [Example 590, 3-amino-6-phenyl-pyrazine-2-carboxylic acid (2-oxo-5-piperidin-1-yl-2,3-dihydro-pyrimidin-4-yl)-amide] |  | 1 to 5

Source: patent US20140249135A1, “PIM KINASE INHIBITORS AND METHODS OF THEIR USE” (NOVARTIS AG, priority 2007, published 2014)
